This note sets out measurements from patent publication US6818765B1, “Benzene-sulphonamide derivatives and their uses” (Universite de Liege, priority 1999, dated 2004).

The target in one assay is T1, thromboxane A2 receptors (TPα) of human platelets (Homo sapiens, UniProt P21731).
T1 construct: endogenous in cells; host or cells: human platelets
T1 sequence (P21731 1-343): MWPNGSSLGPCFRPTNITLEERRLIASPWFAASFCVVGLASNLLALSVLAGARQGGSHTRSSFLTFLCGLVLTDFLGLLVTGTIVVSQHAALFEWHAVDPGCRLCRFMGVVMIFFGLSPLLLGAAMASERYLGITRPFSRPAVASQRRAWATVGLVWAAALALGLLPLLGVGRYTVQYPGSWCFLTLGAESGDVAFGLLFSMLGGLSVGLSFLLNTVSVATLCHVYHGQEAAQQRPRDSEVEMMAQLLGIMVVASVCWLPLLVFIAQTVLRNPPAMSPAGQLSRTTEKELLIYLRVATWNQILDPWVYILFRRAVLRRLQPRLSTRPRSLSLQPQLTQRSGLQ
Put plainly: Binding test: displacement of [3H]SQ-29.548 from human platelet thromboxane A2 receptors.
Conditions: not given
The source says: To operate a first selection, the capacity of these compounds to displace in a specific way a tritium ligand, the [^3H]
Cozzi P., Giordani A., Menichincheri M., Pillan A., Pinciroli V., Rossi A., Tonani R., Volpi D., Tamburin M., Ferrario R., Fusar D., Salvati P.,—Agents combining thromboxane receptor antagonism with thromboxane synthase inhibition:[[[2-(1H-imidazol-1-yl)ethylidene]amino]oxy]alkanoic acids.—J. Med. Chem., 1994, 37, 3588-3604.
For orientation: Displacement assays read how much labelled ligand stays bound in the presence of the test substance.
`CC(Nc1ccc([N+](=O)[O-])cc1S(=O)(=O)NC(=O)NC(C)(C)C)c1ccccc1` (racemic) [Compound 76] showed an IC50 of 3.5 nM. On the same count and under the same terms, with `CC(C)(C)NC(=O)NS(=O)(=O)c1cc([N+](=O)[O-])ccc1NC1CCCCCCC1` [Compound 26] the figure was 16.9 nM.

The same assay, now with this note: compound 10^-6 M.
Regarding `CC(C)NC(=O)NS(=O)(=O)c1cc([N+](=O)[O-])ccc1NC(C)c1ccccc1` (racemic) [Compound 75], the “Affinity: percent of [3H]SQ-29.548 specifically substituted by the examined compound, 10^-6M” value (“Affinity: percent … 10^-6M” below) is given as 93.1%. For the molecule `CC(C)NC(=O)NS(=O)(=O)c1cc([N+](=O)[O-])ccc1NC1CCCCCC1` [Compound 1], the “Affinity: percent … 10^-6M” value is listed as 93.6%. Consider `CC(C)NC(=O)NS(=O)(=O)c1cc([N+](=O)[O-])ccc1NC1CCCC1` [Compound 2], for which the “Affinity: percent … 10^-6M” value was 67.7%. Turning to `Cc1cccc(Nc2ccc([N+](=O)[O-])cc2S(=O)(=O)NC(=NC#N)NC(C)C)c1` [Compound 3], the “Affinity: percent … 10^-6M” value is reported as 20.1%.

For the molecule `N#CN=C(NC1CCCCC1)NS(=O)(=O)c1cc([N+](=O)[O-])ccc1NC1CCCC1` [Compound 4], the “Affinity: percent … 10^-6M” value is recorded as 50.0%. Still for that read-out and setting: with `N#CN=C(NC1CCCCC1)NS(=O)(=O)c1cc([N+](=O)[O-])ccc1NC1CCCCC1` [Compound 5] the figure was 72.1%; with `Cc1cccc(Nc2ccc([N+](=O)[O-])cc2S(=O)(=O)NC(=NC#N)NC2CCCCC2)c1` [Compound 6], 29.8%; with `CC(C)NC(=NC#N)NS(=O)(=O)c1cc([N+](=O)[O-])ccc1NC1CCCCC1` [Compound 7], 42.9%. Take `CC(C)NC(=NC#N)NS(=O)(=O)c1cc([N+](=O)[O-])ccc1NC1CCCCCC1` [Compound 8]: the “Affinity: percent … 10^-6M” value worked out at 33.0%. On to `CC(C)NC(=NC#N)NS(=O)(=O)c1cc([N+](=O)[O-])ccc1NC1CCCCCCC1` [Compound 9], for which the “Affinity: percent … 10^-6M” value was determined as 15.4%. The same measure, in the same setting: as for `Cc1cccc(Nc2ccc([N+](=O)[O-])cc2S(=O)(=O)NC(=C[N+](=O)[O-])NC2CCCCC2)c1` [Compound 10], the figure is 57.7%; as for `Cc1cccc(Nc2ccc([N+](=O)[O-])cc2S(=O)(=O)NC(=S)NC(C)C)c1` [Compound 11], 63.7%. Take `CC(C)NC(=S)NS(=O)(=O)c1cc([N+](=O)[O-])ccc1NC1CCCCCC1` [Compound 12]: the “Affinity: percent … 10^-6M” value came out at 67.2%. Take `CC(C)NC(=O)NS(=O)(=O)c1cc([N+](=O)[O-])ccc1NC1CCCCC1` [Compound 13]: the “Affinity: percent … 10^-6M” value stood at 97.7%.

In the case of `CC(C)NC(=S)NS(=O)(=O)c1cc([N+](=O)[O-])ccc1NC1CCCCC1` [Compound 14], the “Affinity: percent … 10^-6M” value is recorded as 92.9%. `CC(C)NC(=S)NS(=O)(=O)c1cc([N+](=O)[O-])ccc1NC1CCCCCCC1` [Compound 15]: the “Affinity: percent … 10^-6M” value stood at 81.0%. The same measure, in the same setting: as for `O=[N+]([O-])c1ccc(NC2CCCCC2)c(S(=O)(=O)NC(=S)NC2CCCCC2)c1` [Compound 16], the figure is 100%. The same measure, in the same setting: as for `Cc1cccc(Nc2ccc([N+](=O)[O-])cc2S(=O)(=O)NC(=O)NC(C)(C)C)c1` [Compound 19], the figure is 97.8%. In the case of `CCCNc1ccc([N+](=O)[O-])cc1S(=O)(=O)NC(=O)NC(C)C` [Compound 20], the “Affinity: percent … 10^-6M” value stood at 1.6%. For the molecule `CC(C)NC(=O)NS(=O)(=O)c1cc([N+](=O)[O-])ccc1NCc1ccccc1` [Compound 21], the “Affinity: percent … 10^-6M” value was 92.2%. On the same count and under the same terms, with `O=C(NC1CCCCC1)NS(=O)(=O)c1cc([N+](=O)[O-])ccc1NC1CCCCCCC1` [Compound 23] the figure was 95.5%; with `Cc1cccc(Nc2ccc(C#N)cc2S(=O)(=O)NC(=O)NC(C)C)c1` [Compound 24], 73.7%. Take `CCNC(=O)NS(=O)(=O)c1cc([N+](=O)[O-])ccc1NC1CCCCC1` [Compound 27]: the “Affinity: percent … 10^-6M” value was 79.6%. As to `CCNC(=O)NS(=O)(=O)c1cc([N+](=O)[O-])ccc1NC1CCCCCC1` [Compound 28], the “Affinity: percent … 10^-6M” value is recorded as 81.9%. On the same count and under the same terms, as for `Cc1ccccc1Nc1ccc([N+](=O)[O-])cc1S(=O)(=O)NC(=O)NC(C)C` [Compound 30], the figure is 95.1%; as for `C=CCNC(=O)NS(=O)(=O)c1cc([N+](=O)[O-])ccc1Nc1ccccc1` [Compound 31], 80.5%. `C=CCNC(=O)NS(=O)(=O)c1cc([N+](=O)[O-])ccc1NC1CCCCC1` [Compound 32]: the “Affinity: percent … 10^-6M” value is 86.7%.

With `C=CCNC(=O)NS(=O)(=O)c1cc([N+](=O)[O-])ccc1NC1CCCCCC1` [Compound 33], the “Affinity: percent … 10^-6M” value is 86.6%.

For `C=CCNC(=O)NS(=O)(=O)c1cc([N+](=O)[O-])ccc1NC1CCCCCCC1` [Compound 34], the “Affinity: percent … 10^-6M” value is reported as 77.3%. Same read-out and setting: with `CCCNc1ccc([N+](=O)[O-])cc1S(=O)(=O)NC(=S)NC(C)C` [Compound 35] the figure was 45.0%; with `CC(C)NC(=S)NS(=O)(=O)c1cc([N+](=O)[O-])ccc1NCc1ccccc1` [Compound 36], 75.6%. Still for that read-out and setting: as for `CC(C)NC(=S)NS(=O)(=O)c1cc([N+](=O)[O-])ccc1NC1CCCC1` [Compound 37], the figure is 72.3%; as for `CC(C)NC(=S)NS(=O)(=O)c1cc([N+](=O)[O-])ccc1NC1CCCCC1` [Compound 38], 77.2%; as for `CCNC(=S)NS(=O)(=O)c1cc([N+](=O)[O-])ccc1NC1CCCCCC1` [Compound 39], 74.5%. Turning to `O=[N+]([O-])c1ccc(NC2CCCCCCC2)c(S(=O)(=O)NC(=S)NC2CCCCC2)c1` [Compound 41], the “Affinity: percent … 10^-6M” value was 75.9%.

For the molecule `O=[N+]([O-])c1ccc(NC2CCCCC2)c(S(=O)(=O)NC(=S)NCc2ccco2)c1` [Compound 42], the “Affinity: percent … 10^-6M” value is on record as 92.3%.

Regarding `CC(C)NC(=O)NS(=O)(=O)c1cc(C#N)ccc1NC1CCCCC1` [Compound 43], the “Affinity: percent … 10^-6M” value was found to be 50.0%.

For the molecule `CCNC(=O)NS(=O)(=O)c1cc([N+](=O)[O-])ccc1NC1CCCCCCC1` [Compound 44], the “Affinity: percent … 10^-6M” value came out at 80.2%. Still for that read-out and setting: as for `CCOC(=O)NS(=O)(=O)c1cc([N+](=O)[O-])ccc1NC1CCCC1` [Compound 45], the figure is 79.9%; as for `CC(C)NC(=O)NS(=O)(=O)c1cc([N+](=O)[O-])ccc1NC1CCCCCCCCCCC1` [Compound 48], 51.9%.

The assay is the same for the next values; noted with them: compound 10^-7 M.
Turning to `CC(C)NC(=O)NS(=O)(=O)c1cc([N+](=O)[O-])ccc1NC1CCCCCC1` [Compound 1], the “Affinity: percent of [3H]SQ-29.548 specifically substituted by the examined compound, 10^-7M” value (“Affinity: percent … 10^-7M” for short) was 68.0%.

Turning to `CC(C)NC(=O)NS(=O)(=O)c1cc([N+](=O)[O-])ccc1NC1CCCCC1` [Compound 13], the “Affinity: percent … 10^-7M” value came out at 60.3%. Same read-out and setting: with `CC(C)NC(=S)NS(=O)(=O)c1cc([N+](=O)[O-])ccc1NC1CCCCC1` [Compound 14] the figure was 34.0%. Same read-out and setting: with `CC(C)NC(=S)NS(=O)(=O)c1cc([N+](=O)[O-])ccc1NC1CCCCCCC1` [Compound 15] the figure was 16.6%. Consider `O=[N+]([O-])c1ccc(NC2CCCCC2)c(S(=O)(=O)NC(=S)NC2CCCCC2)c1` [Compound 16], for which the “Affinity: percent … 10^-7M” value is 46.1%.

`Cc1cccc(Nc2ccc([N+](=O)[O-])cc2S(=O)(=O)NC(=O)NC(C)(C)C)c1` [Compound 19]: the “Affinity: percent … 10^-7M” value was 93.3%.

`CC(C)NC(=O)NS(=O)(=O)c1cc([N+](=O)[O-])ccc1NCc1ccccc1` [Compound 21]: the “Affinity: percent … 10^-7M” value turned out to be 44.2%. Consider `O=C(NC1CCCCC1)NS(=O)(=O)c1cc([N+](=O)[O-])ccc1NC1CCCCCCC1` [Compound 23], for which the “Affinity: percent … 10^-7M” value stood at 62.9%. Turning to `CCNC(=O)NS(=O)(=O)c1cc([N+](=O)[O-])ccc1NC1CCCCCC1` [Compound 28], the “Affinity: percent … 10^-7M” value was determined as 39.6%. In the case of `Cc1ccccc1Nc1ccc([N+](=O)[O-])cc1S(=O)(=O)NC(=O)NC(C)C` [Compound 30], the “Affinity: percent … 10^-7M” value is listed as 80.8%. `C=CCNC(=O)NS(=O)(=O)c1cc([N+](=O)[O-])ccc1Nc1ccccc1` [Compound 31]: the “Affinity: percent … 10^-7M” value was found to be 42.2%. Still for that read-out and setting: with `C=CCNC(=O)NS(=O)(=O)c1cc([N+](=O)[O-])ccc1NC1CCCCC1` [Compound 32] the figure was 46.0%; with `C=CCNC(=O)NS(=O)(=O)c1cc([N+](=O)[O-])ccc1NC1CCCCCC1` [Compound 33], 52.4%; with `O=[N+]([O-])c1ccc(NC2CCCCC2)c(S(=O)(=O)NC(=S)NCc2ccco2)c1` [Compound 42], 50.5%. The same measure, in the same setting: as for `CCNC(=O)NS(=O)(=O)c1cc([N+](=O)[O-])ccc1NC1CCCCCCC1` [Compound 44], the figure is 51.3%; as for `CCOC(=O)NS(=O)(=O)c1cc([N+](=O)[O-])ccc1NC1CCCC1` [Compound 45], 50.4%.

Still in this assay, the particulars now being: read-out: Affinity: percent of [3H]SQ-29.548 specifically substituted by the examined compound, compound 10^-6 M.
Take `CC(Nc1ccc([N+](=O)[O-])cc1S(=O)(=O)NC(=O)NC(C)(C)C)c1ccccc1` (racemic) [Compound 76]: the inhibition at 1 µM was determined as 97.6%. Same read-out and setting: with `CC(C)(C)NC(=O)NS(=O)(=O)c1cc([N+](=O)[O-])ccc1NC1CCCCCCC1` [Compound 26] the figure was 94.3%.

The same assay, now with this note: read-out: Affinity: percent of [3H]SQ-29.548 specifically substituted by the examined compound, compound 10^-7 M.
With `CC(Nc1ccc([N+](=O)[O-])cc1S(=O)(=O)NC(=O)NC(C)(C)C)c1ccccc1` (racemic) [Compound 76], the inhibition at 0.1 µM came to 93.5%. Turning to `CC(C)(C)NC(=O)NS(=O)(=O)c1cc([N+](=O)[O-])ccc1NC1CCCCCCC1` [Compound 26], the inhibition at 0.1 µM was found to be 93.3%.

The assay is the same for the next values; noted with them: read-out: IC 50: concentration required for replacing 50% of [3H]SQ-29.548 bound to receptors TPα.
`Cc1cccc(Nc2ccc([N+](=O)[O-])cc2S(=O)(=O)NC(=O)NC(C)(C)C)c1` [Compound 19]: the IC50 came to 3.96 nM.
